Measurements: patent publication US5684013A, “Tricyclic compounds useful for inhibition of g-protein function and for treatment of proliferative diseases” (Schering Corporation, priority 1995, dated 1997)
Where “and” joins values, the source holds several entries; their conditions need not be identical. Equal entries are not always repeated.

target: T1, farnesyl protein transferase (FPT) (Rattus norvegicus, UniProt Q02293+Q04631); assay: In vitro enzyme assay: inhibition of farnesyl protein transferase (FPT), Ras-CVLS farnesylation; assay type: biochemical; settings: 14 μM; read-out: FPT inhibition (percent)
T1 construct: were partially purified from rat brain by ammonium sulfate fractionation; from tissue; host or cells: rat brain
Source text: 1. In vitro enzyme assays: Inhibition of farnesyl protein transferase and geranylgeranyl protein transferase.
Both farnesyl protein transferase (FPT) and geranylgeranyl protein transferase (GGPT) I were partially purified from rat brain by ammonium sulfate fractionation followed by Q-Sepharose (Pharmacia, Inc.) anion exchange chromatography essentially as described by Yokoyama et al (Yokoyama, K., et al., (1991), A protein geranylgeranyltransferase from bovine brain: Implications for protein prenylation specificity, Proc. Natl. Acad. Sci USA 88: 5302-5306, the disclosure of which is incorporated herein by reference thereto). Human farnesyl protein transferase was also expressed in E. coli, using cDNA clones encoding both the a and b subunits. The methods used were similar to those published (Omer, C. et al., (1993), Characterization of recombinant human farnesyl protein transferase: Cloning, expression, farnesyl diphosphate binding, and functional homology with yeast prenyl-protein transferases, Biochemistry 32:5167-5176). Human farnesyl protein transferase was partially-purified from the soluble protein fraction of E. coli as described above. the tricyclic farnesyl protein transferase inhibitors disclosed herein inhibited both human and rat enzyme with similar potencies. Two forms of val^12 -Ha-Ras protein were prepared as substrates for these enzymes, differing in their carboxy terminal sequence. One form terminated in cysteine-valine-leucine-serine (Ras-CVLS) the other in cystein-valine-leucine-leucine (Ras-CVLL). Ras-CVLS is a substrate for the farnesyl protein transferase while Ras-CVLL is a substrate for geranylgeranyl protein transferase I. The cDNAs encoding these proteins were constructed so that the proteins contain an amino-terminal extension of 6 histidine residues. Both proteins were expressed in Escherichia coli and purified using metal chelate affinity chromatography. The radiolabelled isoprenyl pyrophosphate substrates, [^3 H]farnesyl pyrophosphate and [^3 H]geranylgeranyl pyrophosphate, were purchased from DuPont/New England Nuclear.
Several methods for measuring farnesyl protein transferase activity have been described (Reiss et al 1990, Cell 62: 81; Schaber et al 1990, J. Biol. Chem. 265: 14701; Manne et al 1990, PNAS 87: 7541; and Barbacid & Manne 1993, U.S. Pat. No. 5,185,248). The activity was assayed by measuring the transfer of [^3 H]farnesyl from [^3 H]farnesyl pyrophosphate to Ras-CVLS using conditions similar to those described by Reiss et al. 1990 (Cell 62: 81) The reaction mixture contained 40 mM Hepes, pH 7.5; 20 mM magnesium chloride; 5 mM dithiothreitol; 0.25 μM [^3 H]farnesyl pyrophosphate; […] Q-Sepharose-purified farnesyl protein transferase; the indicated concentration of tricyclic compound or dimethylsulfoxide (DMSO) vehicle control (5% DMSO final); and […] Ras-CVLS in a total volume of […]. The reaction was allowed to proceed for 30 minutes at room temperature and then stopped with 0.5 ml of 4% sodium dodecyl sulfate (SDS) followed by 0.5 ml of cold 30% trichloracetic acid (TCA). Samples were allowed to sit on ice for 45 minutes and precipitated Ras protein was then collected on GF/C filter paper mats using a Brandel cell harvester. Filter mats were washed once with 6% TCA, 2% SDS and radioactivity was measured in a Wallac 1204 Betaplate BS liquid scintillation counter. Percent inhibition was calculated relative to the DMSO vehicle control.

Compound	inhibition at 14 µM
O=C(Cc1ccncc1)N1CC/C(=C2\c3ccc(Cl)cc3CCc3cccnc32)C1 [Compound E-3M]	37%
O=C(Cc1ccncc1)N1CC/C(=C2/c3ccc(Cl)cc3CCc3cccnc32)C1 [Compound E-3A]	11%

same assay, conditions: 15 μM; read-out: FPT inhibition (percent)

Compound	inhibition at 15 µM
CS(=O)(=O)N1CCC/C(=C2\c3ccc(Cl)cc3CCc3cccnc32)C1 [Compound E-2M]	15%

same assay, conditions: 42 μM; read-out: FPT inhibition (percent)

Compound	inhibition at 42 µM
COc1ccc(S(=O)(=O)N2CCC/C(=C3\c4ccc(Cl)cc4CCc4cccnc43)C2)cc1 [Compound E-2G]	33%

same assay, conditions: 50 μM; read-out: FPT inhibition (percent)

Compound	inhibition at 50 µM
O=C(c1ccco1)N1CC/C(=C2/c3ccc(Cl)cc3CCc3cccnc32)C1 [Compound E-3B]	33%

same assay, conditions: Table 2

Compound	FPT IC50
O=C(c1ccccc1)N1CCC/C(=C2\c3ccc(Cl)cc3CCc3cccnc32)C1 [Compound E-7]	inactive

same assay, conditions: Table 2; read-out: FPT IC50

Compound	IC50
O=C(Cc1ccccc1)N1CCC/C(=C2\c3ccc(Cl)cc3CCc3cccnc32)C1 [Compound E-7B]	> 14 µM
O=S(=O)(c1ccccc1)N1CCC/C(=C2/c3ccc(Cl)cc3CCc3cccnc32)C1 [Compound E-2P]	3.3 µM
O=S(=O)(c1cccs1)N1CCC/C(=C2/c3ccc(Cl)cc3CCc3cccnc32)C1 [Compound E-1J]	4.8 µM
O=[N+]([O-])c1ccc(S(=O)(=O)N2CCC/C(=C3/c4ccc(Cl)cc4CCc4cccnc43)C2)cc1 [Compound E-2Q]	> 40 µM
O=C(CSc1ccncc1)N1CC/C(=C2\c3ccc(Cl)cc3CCc3cccnc32)C1 [Compound E-3N]	4.2 µM
CC(=O)Nc1ccc(S(=O)(=O)N2CCC/C(=C3/c4ccc(Cl)cc4CCc4cccnc43)C2)cc1 [Compound E-2T]	33.5 µM
CC(=O)Nc1ccc(S(=O)(=O)N2CCC/C(=C3\c4ccc(Cl)cc4CCc4cccnc43)C2)cc1 [Compound E-2J]	> 39.4 µM
O=S(=O)(c1cccnc1)N1CCC/C(=C2\c3ccc(Cl)cc3CCc3cccnc32)C1 [Compound E-4]	0.97 µM
O=S(=O)(c1cccs1)N1CC/C(=C2\c3ccccc3CCc3cccnc32)C1 [Compound E-1B]	3.3 µM
O=S(=O)(c1cccnc1)N1CCCC(C2c3ccc(Cl)cc3C=Cc3cccnc32)C1 (centres unmarked) [Compound E-4A]	7.5 µM
O=C(CCc1ccccc1)N1CCC/C(=C2\c3ccc(Cl)cc3CCc3cccnc32)C1 [Compound E-3G]	> 45 µM
O=S(=O)(c1ccc(F)cc1)N1CCC/C(=C2\c3ccc(Cl)cc3CCc3cccnc32)C1 [Compound E-2H]	1.34 µM
O=S(=O)(c1cccs1)N1CC/C(=C2\c3ccc(Cl)cc3CCc3cccnc32)C1 [Compound E-1]	< 0.45 µM and 0.52 µM
COc1ccc(S(=O)(=O)N2CCC/C(=C3/c4ccc(Cl)cc4CCc4cccnc43)C2)cc1 [Compound E-2R]	> 42 µM
Cc1cc(C)c(S(=O)(=O)N2CCC/C(=C3\c4ccc(Cl)cc4CCc4cccnc43)C2)c(C)c1 [Compound E-2L]	> 12 µM
O=C(Nc1ccccc1)N1CCC/C(=C2\c3ccc(Cl)cc3CCc3cccnc32)C1 [Compound E-5]	> 14 µM
O=C(NCc1ccc(S(=O)(=O)N2CCC/C(=C3/c4ccc(Cl)cc4CCc4cccnc43)C2)s1)c1ccccc1 [Compound E-1K]	> 34 µM
Cc1ccc(S(=O)(=O)N2CCC/C(=C3\c4ccc(Cl)cc4CCc4cccnc43)C2)cc1 [Compound E-2K]	> 13 µM

Compound	IC50
O=S(=O)(c1cccnc1)N1CCC/C(=C2/c3ccc(Cl)cc3CCc3cccnc32)C1 [Compound E-4B]	8.8 µM
O=C(Cc1cccnc1)N1CCC/C(=C2\c3ccc(Cl)cc3CCc3cccnc32)C1 [Compound E-3E]	7.8 µM
O=S(=O)(c1ccccc1)N1CCC/C(=C2\c3ccc(Cl)cc3CCc3cc(Br)cnc32)C1 [Compound E-2D]	0.58 µM
O=C(c1cccnc1)N1CCC/C(=C2\c3ccc(Cl)cc3CCc3cccnc32)C1 [Compound E-7A]	> 14.4 µM
O=C(CSc1ccncc1)N1CC/C(=C2/c3ccc(Cl)cc3CCc3cccnc32)C1 [Compound E-3]	6.9 µM
O=S(=O)(c1ccccc1)N1CCCC(C2c3ccc(Cl)cc3C=Cc3cccnc32)C1 (centres unmarked) [Compound E-2U]	6.4 µM
O=C(Cc1ccncc1)N1CCCC(C2c3ccc(Cl)cc3CCc3cccnc32)C1 (centres unmarked) [Compound E-3D]	> 13.9 µM
O=C(Cc1ccncc1)N1CCC/C(=C2/c3ccc(Cl)cc3CCc3cccnc32)C1 [Compound E-3K]	> 14 µM
O=C(CCc1ccccc1)N1CCC/C(=C2/c3ccc(Cl)cc3CCc3cccnc32)C1 [Compound E-3L]	> 45 µM
O=C(Sc1ccccc1)N1CCC/C(=C2\c3ccc(Cl)cc3CCc3cccnc32)C1 [Compound E-6]	> 13 µM
O=S(=O)(Cc1ccccc1)N1CCC/C(=C2\c3ccc(Cl)cc3CCc3cccnc32)C1 [Compound E-2N]	> 13 µM
O=C(Cc1cccnc1)N1CCC/C(=C2/c3ccc(Cl)cc3CCc3cccnc32)C1 [Compound E-3J]	5.1 µM
CS(=O)(=O)N1CCCC(C2c3ccc(Cl)cc3C=Cc3cccnc32)C1 (centres unmarked) [Compound E-2V]	44 µM
O=S(=O)(c1cccs1)N1CCC/C(=C2\c3ccc(Cl)cc3CCc3cc(Br)cnc32)C1 [Compound E-1D]	0.84 µM
O=S(=O)(c1ccc(F)cc1)N1CCC/C(=C2/c3ccc(Cl)cc3CCc3cccnc32)C1 [Compound E-2S]	> 43 µM
O=C(Cc1cccnc1)N1CCCC(C2c3ccc(Cl)cc3CCc3cccnc32)C1 (centres unmarked) [Compound E-3C]	8 µM
O=S(=O)(c1ccccc1)N1CC/C(=C2\c3ccccc3CCc3cccnc32)C1 [Compound E-2C]	2.8 µM
O=C(Cc1ccncc1)N1CCC/C(=C2\c3ccc(Cl)cc3CCc3cccnc32)C1 [Compound E-3F]	> 14 µM

system: T24-BAG4 human bladder carcinoma cells; assay: Cell Mat Assay: inhibition of tumor cell growth; assay type: cell-based; settings: 336 h, tIC50, 14 d colony formation
Description: (§1) Normal human HEPM fibroblasts were planted in 3.5 cm dishes at a density of 5×10^4 cells/dish in 2 ml growth medium, and incubated for 3-5 d to achieve confluence. Medium was aspirated from each dish and the indicator tumor cells, T24-BAG4 human bladder carcinoma cells expressing an activated H-ras gene, were planted on top of the fibroblast monolayer at a density of 2×10^3 cells/dish in 2 ml growth medium, and allowed to attach overnight. Compound-induced colony inhibition was assayed by addition of serial dilutions of compound directly to the growth medium 24 h after tumor cell planting, and incubating cells for an additional 14 d to allow colony formation. Assays were terminated by rinsing monolayers twice with phosphate-buffered saline (PBS), fixing the monolayers with a 1% glutaraldehyde solution in PBS, then visualizing tumor cells by staining with X-Gal (Price, J., et al., Lineage analysis in the vertebrate nervous system by retrovirus-mediated gene transfer, Proc. Natl. Acad. Sci. 84, 156-160(1987)). In the colony inhibition assay, compounds were evaluated on the basis of two IC50 values: the concentration of drug required to prevent the increase in tumor cell number by 50% (tIC50) and the concentration of drug required to reduce the density of cells comprising the cell mat by 50% (mIC50). Both IC50 values were obtained by determining the density of tumor cells and mat cells by visual inspection and enumeration of cells per colony and the number of colonies under the microscope. The therapeutic index of the compound was quantitatively expressed as the ratio of mIC50 /tIC50, with values greater than one indicative of tumor target specificity.

Compound	IC50
O=S(=O)(c1ccc(F)cc1)N1CCC/C(=C2\c3ccc(Cl)cc3CCc3cccnc32)C1 [Compound E-2H]	12.5 µM

system: Normal human HEPM fibroblasts; assay: Cell Mat Assay: inhibition of normal cell growth (cell mat); assay type: cell-based; settings: Fibroblast, mIC50, normal cell monolayer
Description: as §1

Compound	IC50
O=S(=O)(c1ccc(F)cc1)N1CCC/C(=C2\c3ccc(Cl)cc3CCc3cccnc32)C1 [Compound E-2H]	> 25 µM
